Where two headings read alike, the source gives them in different places.
What was measured:
[1] = target: T1, DUSP1 enzyme (activation domain, amino acid residues 166-316) (Homo sapiens, UniProt P28562); experiment: DUSP1 activity inhibitory potency, fluorescence enzyme assay with DiFMUP substrate; assay type: biochemical; settings: 50 nM DUSP1 activation domain, 10 μM DiFMUP, 5% DMSO
T1 construct: made in house; host or cells: E. coli BL21
T1 sequence (P28562 166-316): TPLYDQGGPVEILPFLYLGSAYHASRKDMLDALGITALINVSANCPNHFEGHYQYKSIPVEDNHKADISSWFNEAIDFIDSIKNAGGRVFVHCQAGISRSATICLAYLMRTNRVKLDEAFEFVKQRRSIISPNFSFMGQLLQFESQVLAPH
Procedure: The inhibitory potency of the DUSP1 activity on 8 kinds of the compounds screened in Example 1 was measured.
As the assay buffer, 20 mM Tris-HCl (pH 8.0), 0.01% Triton X-100 and 5 mM DTT were used, and a fluorescent substrate of 6,8-difluoro-4-methylumbelliferyl phosphate (DiFMUP) 10 μM was used as the substrate. The DUSP1 enzyme was expressed and purified from the activation domain (amino acid residues 166-316) and was used at 50 nM concentration in the enzyme reaction.
The expression and purification of the activation domain was carried out in the following manner. The DUSP1 activation domain (amino acid residues 166-316) was cloned into the pET28a (Novagen) vector and expressed in E. coli BL21 strain. The E. coli transformed with the expression vector of the DUSP1 activation domain was promoted with 0.1 mM of IPTG (isopropyl β-D-1-thiogalactopyranoside) at 37° C. The E. coli expressed with the DUSP1 activation domain was purified using a nickel affinity column after being crushed with a sonicator. The purified protein was quantified by the Bradford assay and used for the enzyme reaction.
The fluorescence generated by the enzymatic action was measured using a Victor spectrofluorometer (PerkinElmer) with an excitation/emission wavelength of 355 nm/460 nm. From the obtained results, the intermediate suppression value (IC50) was determined according to a 4-parameter logistic method of the Sigmaplot program package (Systat software Inc.), and the measurement results of the DUSP1 enzyme activity inhibitory potency were shown in Table 2 below.

[2] = system: human liver cancer cell line Hep3B; experiment: MTT analysis of liver cancer cell growth inhibition; assay type: cell-based; settings: 96 hours, unit assumed
Procedure: (§1) The MTT analysis was performed to confirm the potency of inhibiting the growth of liver cancer cells of the DUSP1 inhibitor compound of the present invention.
(§2) A human liver cancer cell line Hep3B was cultured in DMEM, 10% FBS, 1% Anti-anti (Gibco) and prepared in a 96-well plate at a density of 7,000 cells/well. A normal hepatocyte line BNL-CL2 cell was cultured in DMEM, 10% FBS, 1% Anti-anti (Gibco) and prepared in a 96-well plate at a density of 3,000 cells/well.
(§3) After incubating at 37° C. for 15 hours, Compounds 6 to 8 were treated at the time of medium exchange so that final concentrations of the compounds in the medium become 2.5 μM and 5.0 μM, respectively, and the treatment conditions were adjusted so that the final DMSO concentration in the medium after treatment of the compounds can be maintained to 0.5%.
(§4) After 96 hours, a cell growth rate was measured using the Roche Cell […] Assay I (MTT) Kit. 10 μL of the MTT solution was added to each of 100 μL wells to a final concentration of 0.5 mg/ml, and then incubated at 37° C. for 4 hours and 100 μL of the solubilization buffer provided in the Kit was added.

[3] = system: normal hepatocyte line BNL-CL2; experiment: MTT analysis on normal hepatocyte line; assay type: cell-based; settings: 96 hours; for cell growth rate (MTT), BNL-CL2 cell line, compound concentration 5.0 μM: BNL-CL2, 5.0 μM, unit assumed
Procedure: as §1, §2, §3, §4

[4] = system: human liver cancer cell line Hep3B xenograft; experiment: Xenograft assay for tumor suppression; assay type: in vivo; settings: Hep3B xenograft in nude mouse, two intratumoral doses 4 days apart, measured 4 days after second dose; FIG. 4
Procedure: Using a xenograft assay method, it was confirmed whether the DUSP1 inhibitor of the present invention has the potency of inhibiting the cell growth of a liver cancer.
A human liver cancer cell line Hep3B of 1×10^7 was injected into the subcutaneous layer of the back of a nude mouse in DMEM medium, and then when the cell line was 200 to 500 mm^3 in size, it was extracted and inserted into the subcutaneous layer of the back of a new nude mouse in the size of 5×5×5 mm.
The primary and secondary compounds 7 were administered intratumorally at concentrations of 3 μg and 6 μg, respectively, and the primary and secondary compounds 8 were administered intratumorally at concentrations of 2 μg and 4 μg, respectively.

[5] = target: T1, DUSP1 enzyme (activation domain, amino acid residues 166-316); settings: comparison value quoted in text; read-out: IC50 value of known selective DUSP1 inhibitor; cited from earlier work
PC12 neuron = experiment: Neurite outgrowth assay with NGF; assay type: cell-based; settings: PC12, phase contrast microscope, 72 hours
Procedure: The Neurite outgrowth assay was carried out with PC12 neuron by appropriately modifying the protocol described in Ishima et al., (2015) Potentiation of neurite outgrowth by brexpiprazole, a novel serotonin-dopamine activity modulator: A role for serotonin 5-HT1A and 5-HT2A receptors. Eur. Neuropsychopharm. 25, 505-511.
The PC12 neurite cells were distributed by the Korea Cell Line Bank (Seoul National University in Korea) and prepared in a 96-well plate at a density of 7,000 cells/well. The cell culture was performed in Dulbeco's Modified Eagle's Media (DMEM), 10% FBS and 1% Anti-anti (Gibco).

Structure (SMILES): O=C(c1c(Nc2cc(Cl)cc(Cl)c2)[nH]c2c(Cl)ccc([N+](=O)[O-])c2c1=O)C1CC1 [Compound 5]
- IC50 [1]: 4.1 µM

Structure (SMILES): CC(C)CC(=O)c1c(Nc2cccc(Cl)c2Cl)[nH]c2c(Cl)ccc([N+](=O)[O-])c2c1=O [Compound 8]
- IC50 [1]: 4.8 µM
- cell growth rate (MTT), HEP3B cell line, compound concentration 5.0 μM [2]: 16%
- cell growth rate (MTT), BNL-CL2 cell line, compound concentration 5.0 μM [3]: 54%
- cell growth rate (MTT), BNL-CL2 cell line, compound concentration […] [3]: 139
- tumor size reduction [4]: about 85%

Structure (SMILES): C[n+]1cc2c3c(ccc2c2ccc4cc5c(cc4c21)OCO5)OCO3 [Sanguinarin]
- IC50 [5]: 10 µM

Structure (SMILES): CC(=O)c1c(Nc2ccc(Br)cc2Br)[nH]c2c(Cl)ccc(F)c2c1=O [Compound 4]
- IC50 [1]: 6.1 µM

Structure (SMILES): CC(C)CC(=O)c1c(Nc2cc(Cl)cc(Cl)c2)[nH]c2c(Cl)ccc([N+](=O)[O-])c2c1=O [Compound 7]
- IC50 [1]: 3.5 µM
- cell growth rate (MTT), BNL-CL2 cell line, compound concentration […] [3]: 156
- tumor size reduction [4]: about 70%

Structure (SMILES): CC(=O)c1c(Nc2ccc(Cl)cc2Cl)[nH]c2c(Cl)ccc(F)c2c1=O [Compound 3]
- IC50 [1]: 7.5 µM

Structure (SMILES): CC(C)C(=O)c1c(Nc2cc(Cl)cc(Cl)c2)[nH]c2c(Cl)ccc([N+](=O)[O-])c2c1=O [Compound 1]
- IC50 [1]: 5.1 µM

Structure (SMILES): CC(=O)c1c(Nc2cc(C(F)(F)F)cc(C(F)(F)F)c2)[nH]c2c(Cl)ccc(F)c2c1=O [Compound 6]
- IC50 [1]: 4.2 µM
- induction of neurite outgrowth (PC12 neuron): shape of neurites stretching from the cell can be confirmed
- cell growth rate (MTT), HEP3B cell line, compound concentration 5.0 μM [2]: 14%
- cell growth rate (MTT), BNL-CL2 cell line, compound concentration 5.0 μM [3]: 8%
- cell growth rate (MTT), BNL-CL2 cell line, compound concentration […] [3]: 111
